Read-outs that look alike come from different tables or passages of the source.

The conditions of data set [1]: non-ionic surfactants, literature values; cited from earlier work.
The nature of data set [2]: Critical micelle concentration (CMC) in water by the stalagmometric method (surface tension vs. concentration). It counts as physicochemical. As to the method:
CMC of mono and di-hydrophilic moiety derivatized betulin derivatives were determined according to the stalagmometric method, which is one of the most common methods for measuring surface tension. Samples were prepared at different concentration of mono and di-hydrophilic moiety derivatized betulin derivatives. The surface tension of samples was calculated from the number of drops obtained by stalagmometer. CMC was calculated by plotting surface tensions vs. concentrations of sample.
CMCs of mono-glycosylated betulin, di-glycosylated betulin, mono-(poly) ethoxylated-carbonated betulin and di-(poly) ethoxylated betulin were determined in water, respectively. Surface tensions of samples obtained in above examples were determined at different concentrations according to the stalagmometric method.
CMC of mono-hydrophilic moiety derivatized betulin derivatives were determined according to the stalagmometric method, which is one of the most common methods for measuring surface tension. Samples were prepared at different concentration of mono-hydrophilic moiety derivatized betulin derivatives. The surface tension of samples was calculated from the number of drops obtained by stalagmometer. CMC was calculated by plotting surface tensions vs. concentrations of sample.
CMCs of two mono-hydrophilic functionalized betulin at C28-hydroxy and C3-hydroxy group were determined in water, respectively. Surface tensions of samples obtained in above examples were determined at different concentrations according to the stalagmometric method. And CMC was obtained as 0.6 mM (Betulin-carbonate-polyether (PEA) from Example 10), and 0.5 mM (Betulin-carbonate-polyether (PEG) from Example 11), respectively, by plotting surface tensions vs. concentrations of sample.

fructose oleate: the CMC in data set [1] was 0.4 mM.

In data set [2], Betulin-carbonate-polyether (PEG) returned a CMC of 0.5 mM.

As for `C=C(C)[C@@H]1CC[C@]2(COC3OC(CO)C(O)C(O)C3O)CC[C@]3(C)C(CCC4[C@@]5(C)CC[C@H](OC6OC(CO)C(O)C(O)C6O)C(C)(C)C5CC[C@]43C)C12` (some centres unmarked) [di-glycosylated betulin, diglucose-betulin], in data set [2], the CMC is 1.0 mM.

Turning to Triton X-100, in data set [1], the CMC was 0.2 mM.

For the compound sucrose monolaurate, the CMC in data set [1] is given as 0.45 mM.

As for Brij 35, the CMC in data set [1] was 0.1 mM.

In the case of `C=C(C)[C@@H]1CC[C@]2(COC3OC(CO)C(O)C(O)C3O)CC[C@]3(C)C(CCC4[C@@]5(C)CC[C@H](O)C(C)(C)C5CC[C@]43C)C12` (some centres unmarked) [mono-glycosylated betulin, glucose-betulin], in data set [2], the CMC is given as 0.8 mM.

Compound Betulin-carbonate-polyether (PEA) gave a CMC in data set [2] of 0.6 mM.

The record behind these values is patent US20250154195A1, “NOVEL BETULIN DERIVATIVES, AND THEIR MANUFACTURING METHOD AND USE AS SURFACTANT” (priority 2022, published 2025).
